From patent US20240115589A1, “PHARMACEUTICAL COMPOSITION FOR PREVENTING CYTOKINE STORM” (KINKI UNIVERSITY, priority 2021, published 2024) come the findings set out here.

Assay [1] has as its system TNFα mRNA. Briefly: LPS-stimulated TNFα mRNA expression in mouse B cells (real time PCR). It is filed as cell-based. Conditions: 10 μM compound 1 day, then 10 μg/mL LPS 4 h, vs LPS-treated group. Here is the method:
The inhibitory effect of compounds on TNFα mRNA expression involved in cytokine storm was examined using mouse B cells.
(§1) Mouse B cells were pre-cultured with RPMI1640 medium for 1 day. After incubation, mouse B cells were treated with 10 μM mangiferin 8a, 10 μM norathyriol, 1 μM M9, and 1 μM M14 for 1 day. Then, 10 μg/mL LPS was added to mouse B cells and cultured for 4 h. After incubation, cells were collected, RNA was extracted, and TNFα mRNA expression was measured by real time PCR.
(§2) For controls, only 0.5% DMSO (diluted in PBS) used to dissolve the compounds was added. 10 μg/mL LPS administered is called the LPS-treated group, LPS and mangiferin 8a administered in combination is called the mangiferin 8a-treated group, LPS and norathyriol administered in combination is called the norathyriol group, LPS and M9 administered in combination is called the M9-treated group, LPS and M14 administered in combination is called the M14-treated group, respectively.
Background: In qPCR the cycle at which signal appears reflects the starting amount.

Assay [2] deals with male C57BL/6J. The assay can be described thus: Survival rate of mice treated with compound and LPS (lethality in cytokine storm). It is filed as in vivo. Conditions: C57BL/6J mice, 50 mg/kg oral, 25 mg/kg LPS i.p. 5 min later, day 2; compared to LPS group. The protocol:
Six-week-old male C57BL/6J (SHIMIZU Laboratory Supplies Co., Ltd.) were orally administered 50 mg/kg mangiferin 8a, 100 mg/kg norathyriol, 50 mg/kg M9, and 50 mg/kg M14. Five minutes later, 25 mg/kg LPS was administered intraperitoneally. The day of administration was set as day 0, and the survival rate was measured on day 2.
Those not receiving the compound and LPS are referred to as the control group, those receiving 25 mg/kg LPS are referred to as the LPS group, those receiving 50 mg/kg mangiferin 8a and 25 mg/kg LPS are referred to as the mangiferin 8a-treated group, those receiving 100 mg/kg norathyriol and 25 mg/kg LPS are referred to as the norathyriol-treated group, those receiving 50 mg/kg M9 and 25 mg/kg LPS are referred to as the M9-treated group, and those receiving 50 mg/kg M14 and 25 mg/kg LPS are referred to as the M14-treated group.
Referring to FIG. 9, the horizontal axis indicates compound treatment, and the vertical axis indicates survival rate (%).

Assay [3] relates to IL-6. Briefly: LPS-stimulated IL-6 production in mouse B cells (ELISA). It is filed as cell-based. Conditions: culture supernatant, 10 μM compound 1 day, then 10 μg/mL LPS 2 days, control 9.46, LPS alone 246.13 pg/mL. The protocol: The inhibitory effect of compounds on IL-6 production involved in cytokine storm was examined using mouse B cells.
Mouse B cells were pre-cultured with RPMI1640 medium for 1 day. After incubation, mouse B cells were treated with 10 μM mangiferin 8a, 10 μM norathyriol, 1 μM M9, and 1 μM M14 for 1 day. Then, 10 μg/mL LPS was added to mouse B cells and cultured for 2 days. After incubation, the culture supernatant was collected and IL-6 production was determined by enzyme-linked immunosorbent assay (ELISA). This measurement was performed using a mouse IL-6 ELISAkit (R&D).
A general note: ELISA stands for enzyme-linked immunosorbent assay.

Assay [4] relates to TNFα. The assay can be described thus: LPS-stimulated TNFα production in mouse macrophages (ELISA). It counts as cell-based. Conditions: culture supernatant, 10 μM compound 1 day, then 10 μg/mL LPS 2 days, control 24.11, LPS alone 421.13 pg/mL. The protocol: The inhibitory effect of compounds on TNFα production involved in cytokine storm was examined using mouse macrophages.
Mouse macrophages were pre-cultured with RPMI1640 medium for 1 day. After incubation, mouse macrophages were treated with 10 μM mangiferin 8a, 10 μM norathyriol, 1 μM M9, and 1 μM M14 for 1 day. Then, 10 μg/mL LPS was added to mouse macrophages and cultured for 2 days. After incubation, the culture supernatant was collected and TNFα production was determined by enzyme-linked immunosorbent assay (ELISA). This measurement was performed using a mouse TNFα ELISA kit (R&D).

The test system of assay [5] is TNFα. Briefly: LPS-stimulated TNFα production in mouse B cells (ELISA). It counts as cell-based. Conditions: culture supernatant, 10 μM compound 1 day, then 10 μg/mL LPS 2 days, control 15.13, LPS alone 296.31 pg/mL. Here is the method: The inhibitory effect of compounds on TNFα production involved in cytokine storm was examined using mouse B cells.
Mouse B cells were pre-cultured with RPMI1640 medium for 1 day. After incubation, mouse B cells were treated with 10 μM mangiferin 8a, 10 μM norathyriol, 1 μM M9, and 1 μM M14 for 1 day. Then, 10 μg/mL LPS was added to mouse B cells and cultured for 2 days. After incubation, the culture supernatant was collected and TNFα production was determined by enzyme-linked immunosorbent assay (ELISA). This measurement was performed using a mouse TNFα ELISA kit (R&D).

For assay [6], the system named is IL-6 mRNA. The assay can be described thus: LPS-stimulated IL-6 mRNA expression in mouse B cells (real time PCR). The note with it: 10 μM compound 1 day, then 10 μg/mL LPS 4 h, vs LPS-treated group. It counts as cell-based. Here is the method:
as §1
The inhibitory effect of compounds on IL-6 mRNA expression involved in cytokine storm was examined using mouse B cells. The experimental procedure is the same as in Example 1.
as §2

The subject of assay [7] is IL-6 mRNA. Briefly: LPS-stimulated IL-6 mRNA expression in mouse macrophages (real time PCR). It counts as cell-based. Conditions: 10 μM compound 1 day, then 10 μg/mL LPS 4 h, vs LPS-treated group. The protocol:
(§3) Mouse macrophages were pre-cultured with RPMI1640 medium for 1 day. After incubation, mouse macrophages were treated with 10 μM mangiferin 8a, 10 μM norathyriol, 1 μM M9, and 1 μM M14 for 1 day. Then, 10 μg/mL LPS was added to mouse macrophages and cultured for 4 h. After incubation, cells were collected, RNA was extracted, and TNFα mRNA expression was measured by real time PCR.
The inhibitory effect of compounds on IL-6 mRNA expression involved in cytokine storm was examined using mouse macrophages.
The experimental procedure is the same as in Example 3. […] For controls, only 0.5% DMSO (diluted in PBS) used to dissolve the compounds was added. 10 μg/mL LPS administered is called the LPS-treated group, LPS and mangiferin 8a administered in combination is called the mangiferin 8a-treated group, LPS and norathyriol administered in combination is called the norathyriol group, LPS and M9 administered in combination is called the M9-treated group, LPS and M14 administered in combination is called the M14-treated group, respectively.

In assay [8] the test system is IL-6. Briefly: LPS-stimulated IL-6 production in mouse macrophages (ELISA). It counts as cell-based. The note with it: culture supernatant, 10 μM compound 1 day, then 10 μg/mL LPS 2 days, control 13.13, LPS alone 321.13 pg/mL. Here is the method: The inhibitory effect of compounds on IL-6 production involved in cytokine storm was examined using mouse macrophages.
Mouse macrophages were pre-cultured with RPMI1640 medium for 1 day. After incubation, mouse macrophages were treated with 10 μM mangiferin 8a, 10 μM norathyriol, 1 μM M9, and 1 μM M14 for 1 day. Then, 10 μg/mL LPS was added to mouse macrophages and cultured for 2 days. After incubation, the culture supernatant was collected and IL-6 production was determined by enzyme-linked immunosorbent assay (ELISA). This measurement was performed using a mouse IL-6 ELISA kit (R&D).

Assay [9] has as its system TNFα mRNA. Briefly: LPS-stimulated TNFα mRNA expression in mouse macrophages (real time PCR). Conditions: 10 μM compound 1 day, then 10 μg/mL LPS 4 h, vs LPS-treated group. It counts as cell-based. Here is the method:
The inhibitory effect of compounds on TNFα mRNA expression involved in cytokine storm was examined using mouse macrophages.
as §3, §2

`CCC(=O)OC[C@H]1O[C@@H](c2c(O)cc3oc4cc(O)c(O)cc4c(=O)c3c2OC(=O)CC)[C@H](OC(=O)CC)[C@@H](OC(=O)CC)[C@@H]1OC(=O)CC` [mangiferin 8a, 1,2′,3′,4′,6′-penta-O-propionylmangiferin]: the “LPS-induced TNFα mRNA expression (ratio to GAPDH mRNA)” value in [1] and in assay [9] was “decrease in LPS-induced TNFα mRNA expression” in each case. Also, the survival rate result in assay [2] was “significantly reduced the decrease in survival”. In addition, the IL-6 production in [3] came out at 54.13 pg/mL; in [8], 69.16 pg/mL. For the same compound, the TNFα production was found to be 65.13 pg/mL in [4] and 59.31 pg/mL in [5]. Moreover, the “LPS-induced IL-6 mRNA expression (ratio to GAPDH mRNA)” value in [6] and in assay [7] was “decrease in LPS-induced IL-6 mRNA expression” throughout.
